A word on the IC50: it is the concentration that gives 50% inhibition. Low values mean greater potency in that assay, high ones weaker potency in that assay.

Read-outs that look alike come from different tables or passages of the source.

Assay [1] has as its target T1, P-glycoprotein (Pgp) (Homo sapiens, UniProt P08183). Format: cell-based.
In assay [2] the target is T1, P-glycoprotein (Pgp). In kind it is cell-based. The source holds these as a separate data set.

T1 sequence (P08183 whole entry): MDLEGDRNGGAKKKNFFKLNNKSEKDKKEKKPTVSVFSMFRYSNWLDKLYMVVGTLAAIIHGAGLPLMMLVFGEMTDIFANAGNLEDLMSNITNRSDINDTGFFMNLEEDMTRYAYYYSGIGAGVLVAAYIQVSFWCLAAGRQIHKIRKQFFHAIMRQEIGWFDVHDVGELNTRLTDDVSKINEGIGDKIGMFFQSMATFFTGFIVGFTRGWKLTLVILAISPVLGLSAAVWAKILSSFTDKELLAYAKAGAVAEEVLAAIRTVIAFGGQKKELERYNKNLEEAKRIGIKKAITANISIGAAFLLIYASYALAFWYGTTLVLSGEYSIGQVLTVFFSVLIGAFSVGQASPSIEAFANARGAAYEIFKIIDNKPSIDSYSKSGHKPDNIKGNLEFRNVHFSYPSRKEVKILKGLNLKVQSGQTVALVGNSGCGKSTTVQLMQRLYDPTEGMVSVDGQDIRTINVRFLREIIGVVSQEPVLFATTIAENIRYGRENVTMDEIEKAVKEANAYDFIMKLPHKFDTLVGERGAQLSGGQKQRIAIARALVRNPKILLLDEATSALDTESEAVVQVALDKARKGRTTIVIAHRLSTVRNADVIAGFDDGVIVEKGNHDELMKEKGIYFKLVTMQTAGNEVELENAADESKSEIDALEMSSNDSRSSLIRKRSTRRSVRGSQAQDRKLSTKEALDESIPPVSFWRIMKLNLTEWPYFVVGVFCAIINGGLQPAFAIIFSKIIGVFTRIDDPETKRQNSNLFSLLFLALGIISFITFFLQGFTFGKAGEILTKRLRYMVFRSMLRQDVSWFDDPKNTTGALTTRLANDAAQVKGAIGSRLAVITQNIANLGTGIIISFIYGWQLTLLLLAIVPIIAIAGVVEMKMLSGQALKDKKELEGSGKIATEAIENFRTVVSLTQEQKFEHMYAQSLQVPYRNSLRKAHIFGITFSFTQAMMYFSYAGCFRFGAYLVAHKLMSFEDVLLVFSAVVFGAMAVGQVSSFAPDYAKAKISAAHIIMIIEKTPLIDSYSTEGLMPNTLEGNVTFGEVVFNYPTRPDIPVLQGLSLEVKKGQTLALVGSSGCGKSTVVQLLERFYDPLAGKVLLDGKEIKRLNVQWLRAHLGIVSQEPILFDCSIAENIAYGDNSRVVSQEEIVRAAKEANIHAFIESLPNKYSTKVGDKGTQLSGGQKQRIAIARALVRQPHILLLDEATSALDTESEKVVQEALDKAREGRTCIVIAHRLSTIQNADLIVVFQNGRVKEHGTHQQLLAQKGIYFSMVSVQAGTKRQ

Compound `COc1cc2c(cc1OC)CN(CCc1ccc(NC(=O)c3cc(OC)c(OC)cc3NC(=O)c3cnc4ccccc4c3)cc1)CC2` [tariquidar] returned a half-inhibitory concentration (IC50) against P-glycoprotein (Pgp) [1] of 8.2 ± 2 nM.

Take `COc1cc2c(cc1OC)CN(CCc1ccc(-n3nnc(-c4cc(OC)c(OC)cc4NC(=O)c4cc(=O)c5ccccc5o4)n3)cc1)CC2` [HM30181, N-(2-(2-(4-(2-(6,7-dimethoxy-3,4-dihydroisoquinolin-2(1H)-yl)ethyl)phenyl)-2H-tetrazol-5-yl)-4,5-dimethoxyphenyl)-4-oxo-4H-chromene-2-carboxamide]: on P-glycoprotein (Pgp) [2], the IC50 worked out at 13.1 ± 2.3 nM.

The values above are taken from publication PMC3690544 (European journal of pharmacology, 2012).
